According to patent US3954893A, “New halogenated cyclobutanes” (W. R. Grace & Co., priority 1975, dated 1976):

What was measured:
[1] = review of the art; cited from earlier work
[2] = system: air-breathing mammals; assay: Inhalation anesthetic properties of the compounds; type: in vivo; settings: for Convulsions and death: administered in concentrations within the useful range; for Inhalation anesthetic properties: in vivo
Method: (§1) In this test, mice were exposed to the compounds for a period of 10 minutes in a rotating drum. Observations were then made of the pinch reflex, the corneal reflex and the return of the righting reflex. At least four graded doses were employed to determine the minimum concentration required to anesthetize 50% of the mice used (AC50) and the minimum concentration required to kill 50% of the mice (LC50). The anesthetic index (AI) was then calculated from these minimum concentrations. The data obtained with the compounds of Examples I to XIII are presented in Table 2 along with, for comparison purposes, results obtained from similar testing of 1,2-dihydrohexafluorocyclobutane, the compound of the prior art, a closely related analog, 1,1,2,2-tetrafluorocyclobutane, and another chlorofluoro anesthetic, 1,1,2-trichloro-2,3,3-trifluorocyclobutane.

[3] = system: mice; assay: Standard test for evaluation of inhalation anesthetics (rotating drum, 10 minutes exposure; AC50, LC50, AI); type: in vivo; settings: for AC50 (minimum concentration required to anesthetize 50% of the mice) / LC50 (minimum concentration required to kill 50% of the mice): inhalation, 10 minutes exposure in rotating drum, where two percentages are given the actual vapor concentration lies between them
Method: as §1

[4] = as above; type: in vivo, mice; settings: mouse, in vivo, inhaled or intranasal, calculated from AC50 and LC50, mice; read-out: AI (anesthetic index)
Method: as §1

[5] = system: mice; assay: Observation after exposure: survival, delayed death, convulsions; type: in vivo
Method: as §1
In contrast to these findings, all test mice used in Example I to X were still living one week after exposure.
This compound, which is one of the numerous halogenated cyclobutanes that have been found deleterious, is of particular interest in that its close structural relationship to the 1,2-dihydrohexafluorocyclobutane isomers of the art and to the useful trifluoro (Ex. VII) homolog disclosed above provides a good illustration of the unpredictability in physiological behavior in the field of anesthesia.

[6] = cis- and trans- isomers, values reported by Burns et al; cited from earlier work

| Compound | Convulsions and death [2] | Inhalation anesthetic properties [2] | AC50 (minimum concentration required to anesthetize 50% of the mice) [3] | LC50 (minimum concentration required to kill 50% of the mice) [3] | selectivity ratio at 10 min [4] | other results |
| --- | --- | --- | --- | --- | --- | --- |
| FC1(F)C(F)(F)C(F)(Cl)C1(F)Cl (centres unmarked) [1,2-dichlorohexafluoro-] | – | – | – | – | – | Anesthetic properties / toxicity in the prior art [1]: toxic |
| FC1C(F)C(F)(F)C1(F)F (centres unmarked) [1,2-dihydrohexafluoro-, 1,2-dihydrohexafluorocyclobutane] | – | – | – | – | – | Anesthetic properties / toxicity in the prior art [1]: said to possess anesthetic properties |
| FC1(F)CC(Cl)C1(F)Cl (centres unmarked) [1,4-dichloro-1,2,2-trifluorocyclobutane] | not cause convulsions and death | found to possess inhalation anesthetic properties | – | – | – | – |
| FC1(F)CC(Cl)C1(F)Br (centres unmarked) [Example X, 1-bromo-2-chloro-1,4,4-trifluorocyclobutane] | not cause convulsions and death | found to possess inhalation anesthetic properties | < 0.2 % volume | 0.5 % volume | ≥ 2.5 | – |
| FC1(F)CCC1(F)F [Example XII, 1,1,2,2-tetrafluorocyclobutane, reference compound] | – | – | 4 % volume | 12 % volume | 3 | Convulsions ([5]; on further observation): proved to be a convulsant on further observation |
| FC1(F)CC(Cl)C1(F)Cl (centres unmarked) [I, b.p. 104°C] | – | – | 0.2 % volume | 0.8 % volume | – | AI (anesthetic index) ([3]; calculated from AC50 and LC50, mice, 10 min): 4 |
| FC1(F)CC(Cl)C1(F)Cl (centres unmarked) [I, b.p. 107°C] | – | – | 0.2 % volume | 1.2 % volume | 6 | – |
| FC1CC(F)(F)C1(F)Cl (centres unmarked) [II, 1-chloro-1,2,2,4-tetrafluorocyclobutane] | not cause convulsions and death | found to possess inhalation anesthetic properties | 0.5 % volume | 3-3.5 % volume | ≥ 6 | – |
| FC1(F)CC(F)(Cl)C1(F)Cl (centres unmarked) [III, 1,4-dichloro-1,2,2,4-tetrafluorocyclobutane] | not cause convulsions and death | found to possess inhalation anesthetic properties | 0.43-2 % volume | 2-3 % volume | ≥ 1 | – |
| FC1C(Cl)CC1(F)F (centres unmarked) [IV, 1-chloro-2,3,3-trifluorocyclobutane] | not cause convulsions and death | found to possess inhalation anesthetic properties | 0.75-1 % volume | ≥ 4 % volume | ≥ 4 | – |
| CC1CC(F)(F)C1(F)Br (centres unmarked) [IX, 1-bromo-2-methyl-1,4,4-trifluorocyclobutane] | not cause convulsions and death | found to possess inhalation anesthetic properties | 0.5-1 % volume | 1.5-1.75 % volume | ≥ 1.5 | – |
| FC1(F)CC(F)(Cl)C1(F)F (centres unmarked) [V, 1-chloro-1,2,2,3,3-pentafluorocyclobutane] | not cause convulsions and death | found to possess inhalation anesthetic properties | 2 % volume | 10 % volume | 5 | – |
| FC1CC(F)(F)C1Cl (centres unmarked) [VI, 1-chloro-2,4,4-trifluorocyclobutane] | not cause convulsions and death | found to possess inhalation anesthetic properties | < 1 % volume | 2 % volume | ≥ 2 | – |
| FC1CCC1(F)F (centres unmarked) [VII, 1,2,2-trifluorocyclobutane] | not cause convulsions and death | found to possess inhalation anesthetic properties | < 4 % volume | 8 % volume | ≥ 2 | – |
| FC1(F)CCC1(F)Br (centres unmarked) [VIII, 1-bromo-1,2,2-trifluorocyclobutane] | not cause convulsions and death | found to possess inhalation anesthetic properties | < 0.5 % volume | 3.5 % volume | ≥ 7 | – |
| FC1C(F)C(F)(F)C1(F)F (centres unmarked) [XI, b.p. 26°] | – | – | – | – | – | AC50 (anesthetic concentration) [6]: 10.5 % volume |
| FC1C(F)C(F)(F)C1(F)F (centres unmarked) [XI, b.p. 63°] | – | – | – | – | – | AC50 (anesthetic concentration) [6]: 1.9 % volume |
| FC1(F)CC(Cl)(Cl)C1(F)Cl (centres unmarked) [XIII, 1,1,2-trichloro-2,3,3-trifluorocyclobutane, reference compound] | – | – | 0.2 % volume | 1 % volume | 5 | Delayed death ([5]; mice, retested in the manner of Examples I to X, XII and XIII, after apparent recovery from anesthesia): The same "delayed death" phenomenon has been observed |
| C1CC1 [cyclopropane] | – | – | – | – | – | Anesthetic properties / toxicity in the prior art [1]: effective if inflammable anesthetic |
| FC(F)(F)C(Cl)Br (centres unmarked) [halothane, reference compound] | – | – | – | – | ~3 | – |
| FC1(F)C(F)(F)C(F)(F)C1(F)F [octafluoro-] | – | – | – | – | – | Anesthetic properties / toxicity in the prior art [1]: inactive |
